Measurements published in ChEMBL document CHEMBL2074140, “Identification and characterization of a prostaglandin transporter” (Science, 1995).

Biological target: Solute carrier organic anion transporter family member 2A1 (Rattus norvegicus, UniProt Q00910)
Experiment: TP_TRANSPORTER: inhibition of PGF2alpha uptake in PGT-expressing HeLa cells
Assay type: functional, cell-based

Row | Structure (SMILES) | Ki
1 | NS(=O)(=O)c1cc(C(=O)O)c(NCc2ccco2)cc1Cl [FUROSEMIDE] | 47 µM
2 | O=C1OC(c2ccc(O)c(S(=O)(=O)O)c2)(c2ccc(O)c(S(=O)(=O)O)c2)c2c(Br)c(Br)c(Br)c(Br)c21 [SULFOBROMOPHTHALEIN SODIUM] | 5.8 µM
3 | CC1(C)C(/C=C/C=C/C=C/C=C2\N(CCCCS(=O)(=O)O)c3ccc4ccccc4c3C2(C)C)=[N+](CCCCS(=O)(=O)[O-])c2ccc3ccccc3c21 [INDOCYANINE GREEN] | 35 µM
4 | Cc1c(C2(c3cc(Br)c(O)c(Br)c3C)OS(=O)(=O)c3ccccc32)cc(Br)c(O)c1Br [BROMCRESOL GREEN] | 3.6 µM
